What all share (type): cell-based
One assay deals with T1, PPAR-β (Homo sapiens, UniProt Q03181).
T1 construct: expressed in transfected cells; host or cells: HeLa cells
T1 sequence (Q03181 1-441): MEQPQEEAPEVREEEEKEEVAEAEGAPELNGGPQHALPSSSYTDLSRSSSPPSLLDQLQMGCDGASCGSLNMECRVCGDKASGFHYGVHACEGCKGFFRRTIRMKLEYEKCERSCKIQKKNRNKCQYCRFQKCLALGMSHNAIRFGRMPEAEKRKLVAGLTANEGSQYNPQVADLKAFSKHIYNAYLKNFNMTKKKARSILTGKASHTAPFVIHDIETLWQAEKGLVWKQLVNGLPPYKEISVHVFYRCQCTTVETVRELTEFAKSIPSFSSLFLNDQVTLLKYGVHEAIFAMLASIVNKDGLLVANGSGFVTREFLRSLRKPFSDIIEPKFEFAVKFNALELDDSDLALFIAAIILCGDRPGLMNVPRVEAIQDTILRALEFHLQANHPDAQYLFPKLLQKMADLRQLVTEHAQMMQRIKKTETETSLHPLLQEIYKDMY
As to the kind of experiment: PPAR-type receptor transactivation test (luciferase reporter), PPAR-β. Particulars: for % activation β / AC50: cotransfected HeLa cells treated 24 hours; for % activation β: luciferase activity, relative to reference molecule Reference 2; for Emax: HeLa, 24 h, read-out: % activation β; for AC50: luciferase, concentration giving 50% of the activity of reference molecule. The protocol:
(§1) This activity is determined with the aid of a reporter enzyme (luciferase) for activation due to the compound via one of the PPAR receptors.
(§2) The biological tests carried out correspond to those described above. […] Thus, the activating power via PPAR-α, PPAR-γ or PPAR-δ of molecules may be evaluated with a transactivation test in which HeLa cells were cotransfected with an expression vector encoding these receptors and a reporter plasmid containing a PPRE response element cloned upstream of part of an SV40 virus promoter and of the luciferase gene. The cotransfected cells were treated for 24 hours with the molecules to be tested and the luciferase activity was determined by luminescence.
For orientation: In a reporter assay the amount or activity of a reporter protein is the signal.

Another assay concerns the target T2, PPAR-α (Homo sapiens, UniProt Q07869).
T2 construct: expressed in transfected cells; host or cells: HeLa cells
T2 sequence (Q07869 1-468): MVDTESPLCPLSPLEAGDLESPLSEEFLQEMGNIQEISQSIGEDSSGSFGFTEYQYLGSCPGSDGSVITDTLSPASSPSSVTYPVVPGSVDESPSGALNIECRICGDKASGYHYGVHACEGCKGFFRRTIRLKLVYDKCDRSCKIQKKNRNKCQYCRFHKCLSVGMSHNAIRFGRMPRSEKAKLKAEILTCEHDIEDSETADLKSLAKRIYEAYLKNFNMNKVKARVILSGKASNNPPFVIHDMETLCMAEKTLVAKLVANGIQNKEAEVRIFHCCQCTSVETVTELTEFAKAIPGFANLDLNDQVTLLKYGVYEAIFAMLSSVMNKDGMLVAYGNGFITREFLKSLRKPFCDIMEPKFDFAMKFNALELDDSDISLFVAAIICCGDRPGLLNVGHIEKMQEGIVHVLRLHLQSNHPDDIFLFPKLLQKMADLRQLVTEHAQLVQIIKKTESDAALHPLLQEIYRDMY
As to the kind of experiment: PPAR-type receptor transactivation test (luciferase reporter), PPAR-α. As to conditions: for % activation α / AC50: cotransfected HeLa cells treated 24 hours; for % activation α: luciferase activity, relative to reference molecule Reference 1; for Emax: HeLa, 24 h, read-out: % activation α; for AC50: luciferase, concentration giving 50% of the activity of reference molecule. As for the experimental part:
as §1, §2

The next assay has as its target T3, PPAR-γ (Homo sapiens, UniProt P37231).
T3 construct: expressed in transfected cells; host or cells: HeLa cells
T3 sequence (P37231 1-505): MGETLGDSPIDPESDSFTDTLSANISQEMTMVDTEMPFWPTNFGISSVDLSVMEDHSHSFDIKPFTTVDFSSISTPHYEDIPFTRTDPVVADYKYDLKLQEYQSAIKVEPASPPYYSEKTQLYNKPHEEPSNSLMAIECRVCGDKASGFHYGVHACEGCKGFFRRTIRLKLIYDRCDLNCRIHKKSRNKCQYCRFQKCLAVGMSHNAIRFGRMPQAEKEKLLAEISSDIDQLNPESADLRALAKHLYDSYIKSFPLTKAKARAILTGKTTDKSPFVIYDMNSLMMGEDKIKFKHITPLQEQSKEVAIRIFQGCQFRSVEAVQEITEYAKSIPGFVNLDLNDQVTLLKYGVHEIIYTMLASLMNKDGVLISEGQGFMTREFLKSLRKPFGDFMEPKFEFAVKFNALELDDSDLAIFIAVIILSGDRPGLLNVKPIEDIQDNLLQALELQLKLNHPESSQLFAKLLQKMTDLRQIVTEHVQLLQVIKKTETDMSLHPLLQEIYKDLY
Description: PPAR-type receptor transactivation test (luciferase reporter), PPAR-γ. As to conditions: for % activation γ / AC50: cotransfected HeLa cells treated 24 hours; for % activation γ: luciferase activity, relative to reference molecule Reference 2; for Emax: HeLa, 24 h, read-out: % activation γ; for AC50: luciferase, concentration giving 50% of the activity of reference molecule. As for the experimental part:
as §1, §2

This is an account of results in patent US20020049250A1, “PPAR receptor activator compounds for treating cutaneous disorders/afflictions” (priority 1999, published 2002).

As for “C-(6-carboxynaphthalen-2-yl)-C-(5,5,8,8-tetramethyl-5,6,7,8-tetrahydronaphthalen-2-yl)methylammonium [compound 2]”, the “% activation β” value at PPAR-β is 1%. Further, on PPAR-α, the “% activation α” value amounted to 1%. In addition, on PPAR-γ, the “% activation γ” value was 13%.
Take `CCCCOC(c1ccc2c(c1)C(C)(C)CCC2(C)C)c1ccc2cc(C(=O)O)ccc2c1` (stereo not shown) [Comparative Example 1, 6-[butoxy(5,5,8,8-tetramethyl-5,6,7,8-tetrahydronaphthalen-2-yl)methyl]naphthalene-2-carboxylic acid]: the Emax at PPAR-β is 28%; on PPAR-α, 0%; on PPAR-γ, 7%.
By AC50 is commonly meant the concentration giving half of the maximal activity seen. A high value points to weaker potency. `CC(C)(C)c1ccc(C(=O)c2ccc3cc(C(=O)O)ccc3c2)cc1` [Compound 3, 6-(4-tert-butylbenzoyl)naphthalene-2-carboxylic acid]: the Emax came to 277% on PPAR-β, 63% on PPAR-α and 148% at PPAR-γ. Further, the values for the AC50 on PPAR-β, on PPAR-α and at PPAR-γ were 300 nM, 1000 nM and 360 nM, respectively.
As to `O=C(O)c1ccc2cc(C(=O)c3ccc4c(c3)CCCC4)ccc2c1` [Compound 4, 6-(5,6,7,8-tetrahydronaphthalene-2-carbonyl)naphthalene-2-carboxylic acid], the results for the Emax at PPAR-β, on PPAR-α and at PPAR-γ were 291%, 40% and 174%, respectively. The AC50 at PPAR-β came to 500 nM; on PPAR-α it was 2000 nM; on PPAR-γ it was 800 nM.
As to `CC1(C)CCc2cc(C(=O)c3ccc4cc(C(=O)O)ccc4c3)ccc2O1` [Compound 2, 6-(2,2-dimethylchroman-6-carbonyl)naphthalene-2-carboxylic acid], the Emax at PPAR-β amounted to 280%; at PPAR-α, 48%; on PPAR-γ, 190%. For the same compound, the AC50 was found to be 700 nM on PPAR-β, 900 nM on PPAR-α and 1500 nM on PPAR-γ.
On to `COc1ccc(C(=O)c2ccc3cc(C(=O)O)ccc3c2)cc1-c1ccccc1` [Comparative Example 4, 6-(6-methoxybiphenyl-3-carbonyl)napthalene-2-carboxylic acid], for which the “% activation β” value at PPAR-β came out at 23%. In addition, the “% activation α” value on PPAR-α turned out to be 6%. At PPAR-γ, the “% activation γ” value turned out to be 2%.
Take `CC1(C)CCOc2ccc(C(=O)c3ccc4cc(C(=O)O)ccc4c3)cc21` [Compound 5, 6-(4,4-dimethylchroman-6-carbonyl)naphthalene-2-carboxylic acid]: the Emax amounted to 92% at PPAR-β, 16% at PPAR-α and 36% on PPAR-γ.
Turning to `Cc1cccc(Nc2cc(Cl)nc(SCC(=O)O)n2)c1C` [Reference 1, [4-chloro-6-(2,3-dimethylphenylamino)pyrimidin-2-ylsulphanyl]acetic acid], the “% activation α” value at PPAR-α is recorded as 100%.
In the case of `COc1ccc(C(O)c2ccc(C(=O)O)cc2)cc1C12CC3CC(CC(C3)C1)C2` (stereo not shown) [Comparative Example 6, 4-[(3-adamantan-1-yl-4-methoxyphenyl)hydroxymethyl]benzoic acid], the Emax was found to be 16% on PPAR-β, 4% at PPAR-α and 7% at PPAR-γ.
The like results for `COc1ccc(C(=O)c2ccc(C(=O)O)cc2)cc1C12CC3CC(CC(C3)C1)C2` [compound 7, 4-(3-adamantan-1-yl-4-methoxybenzoyl)benzoic acid] were, in that order, 23%, 0% and 0%.
The corresponding values for `COc1cc(C(=O)c2ccc3cc(C(=O)O)ccc3c2)ccc1C12CC3CC(CC(C3)C1)C2` [compound 5, 6-(4-adamantan-1-yl-3-methoxybenzoyl)naphthalene-2-carboxylic acid] are 8%, 6% and 3%.
Take “6-(2,4-diisopropylbenzoyl)napthalene-2-carboxylic acid [compound 3]”: the “% activation β” value at PPAR-β worked out at 19%. At PPAR-α, the “% activation α” value was determined as 6%. At PPAR-γ, the “% activation γ” value came out at 3%.
